Results from patent US20100317524A1, “Sulfonylureas” (Bayer CropScience AG, priority 2005, published 2010).

How the values were obtained:
[1] = system: weed plants such as Sinapis alba, Echinochloa crus-galli, Lolium multiflorum, Chrysanthemum segetum, Setaria viridis, Abutilon theophrasti, Amaranthus …; experiment: Post-emergence effect on weeds (greenhouse pot test, visual scoring); type: in vivo; conditions: applied post-emergence (three-leaf stage) at a rate of 0.3 kg or less of active substance per hectare; visual scoring after about 3 to 4 weeks vs untreated controls
[2] = system: weed plants such as Sinapis alba, Chrysanthemum segetum, Avena sativa, Stellaria media, Echinochloa crus-galli, Lolium multiflorum, Setaria viridis, Abutilon …; experiment: Pre-emergence effect on weeds (greenhouse pot test, visual scoring); type: in vivo; conditions: applied pre-emergence at a rate of 0.3 kg or less of active substance per hectare; visual scoring after 3 to 4 weeks vs untreated controls

SMILES	herbicidal action against weed plants, post-emergence [1]	herbicidal action against weed plants, pre-emergence [2]
CCCOc1cccc(I)c1S(=O)(=O)NC(=O)Nc1nc(OC)nc(OC)n1 [Compound 1.175]	very good herbicidal action	very good herbicidal action
CCCCOc1cccc(I)c1S(=O)(=O)NC(=O)Nc1nc(OC)cc(OC)n1 [Compound 1.192]	very good herbicidal action	very good herbicidal action
CCCOc1cccc(I)c1S(=O)(=O)NC(=O)Nc1nc(OC)cc(OC)n1 [Compound 1.171]	very good herbicidal action	very good herbicidal action
COc1cc(Cl)nc(NC(=O)NS(=O)(=O)c2c(I)cccc2OC)n1 [Compound 1.155]	very good herbicidal action	very good herbicidal action
